The target of test [1] is Fibroblast growth factor receptor 2 (Homo sapiens) (UniProt P21802). Conditions: Compound concentration 20.0 uM.
Description: Thermal Shift Assay. Domain: start/stop: T457-E768
The target in the next test is T1, Peregrin (Homo sapiens) (UniProt P55201).
T1 sequence (whole entry): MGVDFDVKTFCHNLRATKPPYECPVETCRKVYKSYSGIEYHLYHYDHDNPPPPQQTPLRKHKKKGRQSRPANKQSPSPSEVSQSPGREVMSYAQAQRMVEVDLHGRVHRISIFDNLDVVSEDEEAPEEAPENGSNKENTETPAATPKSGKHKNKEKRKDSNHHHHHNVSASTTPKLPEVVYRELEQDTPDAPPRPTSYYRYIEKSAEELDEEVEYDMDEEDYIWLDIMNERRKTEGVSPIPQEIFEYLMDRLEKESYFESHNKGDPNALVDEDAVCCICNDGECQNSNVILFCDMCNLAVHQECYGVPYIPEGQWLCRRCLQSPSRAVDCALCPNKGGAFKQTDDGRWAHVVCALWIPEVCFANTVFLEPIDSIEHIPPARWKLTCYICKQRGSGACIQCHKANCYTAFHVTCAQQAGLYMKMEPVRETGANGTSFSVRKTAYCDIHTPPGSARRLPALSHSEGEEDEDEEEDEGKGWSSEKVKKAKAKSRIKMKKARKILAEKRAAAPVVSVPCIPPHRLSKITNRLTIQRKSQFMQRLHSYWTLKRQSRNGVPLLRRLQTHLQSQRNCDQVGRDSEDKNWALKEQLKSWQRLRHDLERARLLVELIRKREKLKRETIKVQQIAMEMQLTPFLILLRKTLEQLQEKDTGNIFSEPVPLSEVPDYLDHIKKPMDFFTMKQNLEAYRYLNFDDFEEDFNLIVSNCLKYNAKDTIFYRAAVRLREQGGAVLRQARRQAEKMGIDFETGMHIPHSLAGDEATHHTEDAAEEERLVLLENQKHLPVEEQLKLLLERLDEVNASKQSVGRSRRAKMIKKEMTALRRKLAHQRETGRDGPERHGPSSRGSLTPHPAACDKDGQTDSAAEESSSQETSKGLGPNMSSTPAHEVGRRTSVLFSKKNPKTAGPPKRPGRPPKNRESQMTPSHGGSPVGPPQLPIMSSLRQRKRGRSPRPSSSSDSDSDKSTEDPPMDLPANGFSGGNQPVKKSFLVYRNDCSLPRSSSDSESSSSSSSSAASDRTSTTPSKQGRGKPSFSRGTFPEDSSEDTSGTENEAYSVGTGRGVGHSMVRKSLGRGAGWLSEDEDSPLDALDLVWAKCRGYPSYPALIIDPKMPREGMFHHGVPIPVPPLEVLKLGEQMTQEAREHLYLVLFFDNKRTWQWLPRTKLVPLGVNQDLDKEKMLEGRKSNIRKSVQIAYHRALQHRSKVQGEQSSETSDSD
The conditions noted are these: Compound concentration 20.0 uM.

Residues, ends and D or L forms follow the SMILES beside them. *: point of attachment. Cbz = O=C(OCc1ccccc1)*; CH2F = FC*

Our source for the ΔTm values is ChEMBL document CHEMBL5724796, “Tm Shift (DSF) assay results for EUbOPEN Chemogenomics Library” (2024).

The term ΔTm denotes the change in melting temperature against a reference sample.

Chain of Fibroblast growth factor receptor 2 (Homo sapiens) (P21802 22-821 limits assumed): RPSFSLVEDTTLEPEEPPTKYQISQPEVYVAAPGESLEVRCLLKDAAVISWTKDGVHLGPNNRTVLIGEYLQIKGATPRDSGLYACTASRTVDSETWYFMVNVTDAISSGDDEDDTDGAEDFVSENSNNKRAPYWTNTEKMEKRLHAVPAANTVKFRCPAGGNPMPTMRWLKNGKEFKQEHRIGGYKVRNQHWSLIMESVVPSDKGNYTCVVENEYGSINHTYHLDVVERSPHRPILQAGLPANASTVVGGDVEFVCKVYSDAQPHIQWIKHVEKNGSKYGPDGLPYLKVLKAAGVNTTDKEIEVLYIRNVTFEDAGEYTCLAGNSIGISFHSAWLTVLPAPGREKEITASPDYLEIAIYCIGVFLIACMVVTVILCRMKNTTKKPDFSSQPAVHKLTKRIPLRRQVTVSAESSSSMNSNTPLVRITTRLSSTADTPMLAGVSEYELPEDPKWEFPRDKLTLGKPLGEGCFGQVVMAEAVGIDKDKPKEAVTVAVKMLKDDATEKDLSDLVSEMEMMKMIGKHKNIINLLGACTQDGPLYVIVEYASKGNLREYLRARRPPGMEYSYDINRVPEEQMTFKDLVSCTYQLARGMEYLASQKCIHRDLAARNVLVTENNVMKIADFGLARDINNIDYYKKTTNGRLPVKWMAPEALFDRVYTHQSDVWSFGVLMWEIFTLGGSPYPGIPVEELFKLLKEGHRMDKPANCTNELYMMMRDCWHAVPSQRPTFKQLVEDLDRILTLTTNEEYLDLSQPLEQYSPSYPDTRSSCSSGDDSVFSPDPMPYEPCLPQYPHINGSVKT

Turning to `COc1ccccc1S(=O)(=O)Nc1ccc2c(c1)CN(C)C(=O)N2`, the ΔTm in test [1] is -0.59 °C; at Peregrin (Homo sapiens) it was 1.9 °C.

In the case of `C[C@@H](Nc1nc2c(cnn2C2CCCC2)c(=O)[nH]1)C(=O)N1CC[C@H](F)C1`, the values for the ΔTm (in test [1]; at Peregrin (Homo sapiens)) were -0.04 °C and -0.37 °C, respectively.

As to `Cn1ncc(-c2nn(C)c3ncnc(N4CCC4)c23)c1-c1ccc(C(F)(F)F)cc1`, the ΔTm in test [1] came to 0.04 °C; on Peregrin (Homo sapiens) it was 3.7 °C.

Take `COc1cc(C(C)C)c2c(c1)S(=O)(=O)N(COc1cc(=O)n3cccc(OCCN4CCCCC4)c3n1)C2=O`: the ΔTm is 1.04 °C in test [1] and -1.13 °C on Peregrin (Homo sapiens).

Consider `Cc1nn(CC(F)(F)F)cc1Nc1ncc(Br)c(NCc2ccc(S(N)(=O)=O)cc2)n1`, for which the ΔTm in test [1] was 2.95 °C; at Peregrin (Homo sapiens), -0.36 °C.

In the case of `O=c1[nH][nH]c(=O)c2cc(OCc3ccccc3F)ccc12`, the ΔTm is 0.22 °C in test [1] and 2.62 °C on Peregrin (Homo sapiens).

Turning to `O=C(NCc1ncccc1F)c1coc(CCNCCc2nc3ccccc3[nH]2)n1`, the ΔTm in test [1] was -0.6 °C; on Peregrin (Homo sapiens), -1.77 °C.

Take `Nc1ncnc2nc(-c3ccc(N4CCOCC4)nc3)cc(-c3cccc(Br)c3)c12`: the ΔTm was 0.52 °C in test [1] and -0.37 °C on Peregrin (Homo sapiens).

As for `CC1=NN(c2ccc(C(=O)O)cc2)C(=O)/C1=C/c1ccc(-c2cc(C)c(C)cc2[N+](=O)[O-])o1`, the figures for the ΔTm (in test [1]; at Peregrin (Homo sapiens)) were 0.86 °C and -1.58 °C, respectively.

Consider `CCCN(CCC)c1ccc(C=O)cc1Br`, for which the results for the ΔTm (in test [1]; at Peregrin (Homo sapiens)) were 0.23 °C and -0.41 °C, respectively.

Turning to `Nc1cccc(CNC(=O)c2ccc(Oc3ccc(OCc4cccc(F)c4)cc3)nc2)c1`, the figures for the ΔTm (in test [1]; at Peregrin (Homo sapiens)) were -0.6 °C and 2.81 °C, respectively.

In the case of `Cc1c(NC(=O)c2cc(C(N)=O)nc3cc(F)ccc23)c(C(F)(F)F)nn1Cc1ccc(C#N)cc1`, the ΔTm in test [1] is 0.32 °C; at Peregrin (Homo sapiens), 0.94 °C.

`COC(=O)CC[C@H](NC(=O)[C@H](Cc1c[nH]c2ccccc12)NC(=O)OCc1ccccc1)C(=O)N[C@@H](Cc1cnc[nH]1)C(=O)N[C@@H](CC(=O)OC)C(=O)CF` (Cbz-WE(OMe)HD(OMe)-CH2F): the ΔTm in test [1] is 0.1 °C; at Peregrin (Homo sapiens), -1.05 °C.

As to `COc1nc(Nc2cc(S(C)(=O)=O)ccc2N[C@@H](c2cccc3c2OC(F)(F)O3)c2ncccc2Cl)nc(N2CCNCC2)n1`, the ΔTm in test [1] was -8.88 °C; on Peregrin (Homo sapiens), 0 °C.

With `CCCCNc1cc(C(=O)O)cc(S(N)(=O)=O)c1Oc1ccccc1`, the ΔTm in test [1] was -0.15 °C; on Peregrin (Homo sapiens) it was 0.81 °C.

Turning to `O=C1c2ccccc2C(=O)c2oc(-c3cccnc3)nc21`, the values for the ΔTm (in test [1]; at Peregrin (Homo sapiens)) were -0.95 °C and 2.45 °C, respectively.

In the case of `NC(=O)C1CN(CCCCC(c2ccc(F)cc2)c2ccc(F)cc2)CCN1CC(=O)Nc1c(Cl)cc(N)cc1Cl` (centres undefined), the ΔTm is -9.38 °C in test [1] and -3.73 °C on Peregrin (Homo sapiens).

`N[C@](CCCCB(O)O)(CCN1CCCCC1)C(=O)O`: the ΔTm turned out to be 0.8 °C in test [1] and 2.66 °C at Peregrin (Homo sapiens).

As to `COCc1nc2cnc3cc(-c4c(C)noc4C)c(OC[C@H]4CCNC4)cc3c2n1[C@H](C)c1ccccc1`, the ΔTm in test [1] amounted to 0.01 °C; on Peregrin (Homo sapiens), 0.65 °C.

For the compound `CCCCCCNC(=O)n1cc(F)c(=O)[nH]c1=O`, the results for the ΔTm (in test [1]; on Peregrin (Homo sapiens)) were 0.03 °C and 0.95 °C, respectively.

Turning to `O=C(C=Cc1ccc(O)cc1)c1ccc(O)cc1O`, the values for the ΔTm (in test [1]; at Peregrin (Homo sapiens)) were 1.26 °C and 0.82 °C, respectively.

Regarding `O=C(O)[C@@H]1CCCN(C(=O)n2cnc(-c3ccc(-c4cnc(N5CCOCC5)nc4)cc3)n2)[C@H]1c1ccccc1`, the ΔTm is 0.15 °C in test [1] and -0.92 °C on Peregrin (Homo sapiens).

As for `N#Cc1ccc(Nc2cnccc2SCc2ccccc2C(=O)O)c2ccccc12`, the ΔTm in test [1] was 0.49 °C; at Peregrin (Homo sapiens) it was 1.8 °C.

On to `CCOC(=O)NCCCC(=O)NCCc1ccccc1`, for which the thermal shift (ΔTm) in test [1] is 0.51 °C; at Peregrin (Homo sapiens), -0.92 °C.

On to `CCOc1ccc(S(=O)(=O)Nc2ccc(Cl)cc2C#Cc2cnc(C(=O)O)cc2OC)c2ncccc12`, for which the ΔTm in test [1] turned out to be 0.19 °C; at Peregrin (Homo sapiens), 0 °C.

With `O=c1[nH][nH]c(=O)c2cc(OCc3ccsc3)ccc12`, the ΔTm was found to be 0.19 °C in test [1] and 3.18 °C on Peregrin (Homo sapiens).

As for `CS(=O)(=O)c1ccc(-c2cnc(NCc3ccco3)n3cnnc23)cc1`, the ΔTm is 0.54 °C in test [1] and -1.15 °C at Peregrin (Homo sapiens).

On to `O=C(Nc1c[nH]nc1C(=O)NC1CCNCC1)c1cc(F)cc(F)c1`, for which the figures for the ΔTm (in test [1]; on Peregrin (Homo sapiens)) were 0.46 °C and -3.15 °C, respectively.

Regarding `Nc1nc2cc(CC[C@H]3C[C@@H](n4ccc5c(N)ncnc54)[C@H](O)[C@@H]3O)ccc2cc1Br`, the shift in melting temperature (ΔTm) in test [1] was -5.18 °C; on Peregrin (Homo sapiens), -0.14 °C.

Turning to `O=C(O)C1=CCCN(CCOC(c2ccc(C(F)(F)F)cc2)c2ccc(C(F)(F)F)cc2)C1`, the ΔTm in test [1] is -0.15 °C; at Peregrin (Homo sapiens) it was 0.47 °C.

For `CNC(=O)Cn1cc(-c2ccc3c(c2)[C@H](F)C[C@]32NC(=O)N(CC(=O)N(Cc3ccc(F)cc3)[C@@H](C)C(F)(F)F)C2=O)cn1`, the ΔTm was -0.18 °C in test [1] and -0.07 °C on Peregrin (Homo sapiens).

As for `C(=C\c1ccccc1)/CN1CCN(CCOC(c2ccccc2)c2ccccc2)CC1`, the ΔTm in test [1] is -0.04 °C; on Peregrin (Homo sapiens), 0.95 °C.

As for `CCCOc1ccc(NC(=O)CN2CCN(C)CC2)cc1-c1nc(CC)c(CC)c(=O)[nH]1`, the values for the thermal shift (ΔTm) (in test [1]; on Peregrin (Homo sapiens)) were -0.52 °C and 1.24 °C, respectively.

For the compound `COc1cc2c(NC3CCN(CC4CCCCC4)CC3)nc(N3CCCN(C(C)C)CC3)nc2cc1OCCCN1CCCCC1`, the ΔTm in test [1] is 0.65 °C; on Peregrin (Homo sapiens) it was -0.98 °C.

As for `C[C@@H]1OC(=O)NN=C1c1ccc(-c2ccc(F)cc2)c(C(F)(F)F)c1`, the ΔTm in test [1] was -0.74 °C; on Peregrin (Homo sapiens), 0.4 °C.

Turning to `N#Cc1nc2c(nc1C#N)-c1ccccc1C2=NOCc1ccccc1`, the ΔTm in test [1] was determined as 0.78 °C; at Peregrin (Homo sapiens), 5.25 °C.

`CC(C)c1cc(C(=O)N2Cc3ccc(CN4CCN(C)CC4)cc3C2)c(O)cc1O`: the ΔTm was 0.44 °C in test [1] and -1.35 °C at Peregrin (Homo sapiens).

For `O=C(c1ccc2[nH]ccc2c1)N1CCN(S(=O)(=O)c2ccc3[nH]c(=O)oc3c2)CC1`, the ΔTm in test [1] was 1.77 °C; at Peregrin (Homo sapiens), -0.16 °C.

For `Nc1nc(NC2CC2)cc(-c2cccc(Cl)c2Cl)n1`, the ΔTm in test [1] was determined as 0.04 °C; at Peregrin (Homo sapiens) it was 0.95 °C.

Take `NC(=S)c1cccc(-c2cn(C3CCN(S(=O)(=O)C(F)(F)F)CC3)c3cc(CNC(=O)C4CNC4)ccc23)c1`: the ΔTm in test [1] amounted to 0.25 °C; on Peregrin (Homo sapiens), 5.2 °C.

With `CC(C)(C)C1CCN(C(=O)n2ncc(C(O)(c3ccccc3)c3ccccc3)n2)CC1`, the ΔTm in test [1] is -3.22 °C; at Peregrin (Homo sapiens), -4.31 °C.

As for `O=C(O)c1cccc(-c2ccc(-c3cn(C(=O)N4CCCCC4Cc4ccccc4)nn3)cc2)c1` (centres undefined), the values for the ΔTm (in test [1]; on Peregrin (Homo sapiens)) were -0.39 °C and -2.81 °C, respectively.

With `CCn1c(=O)c(C)cn(Cc2nnc(-c3ccc(F)c(OC)c3F)s2)c1=O`, the ΔTm in test [1] is 0.75 °C; on Peregrin (Homo sapiens) it was -0.72 °C.

With `O=C(NO)c1ccc(CN2CCCc3cc(Cl)ccc32)cc1`, the ΔTm is 0.45 °C in test [1] and -1.37 °C on Peregrin (Homo sapiens).

Turning to `COCCOCCn1nc2c(c1C)-c1c(Cl)ccc3c1c(C)c(C(=O)O)n3CCCOc1cc(cc3c(F)c(Cl)ccc13)CCc1cc(nn1C)CSC2`, the ΔTm in test [1] is -5.22 °C; on Peregrin (Homo sapiens), 0 °C.

Take `CCNC(=O)/C=C/c1cccc(Br)c1`: the ΔTm was -0.4 °C in test [1] and -1.37 °C on Peregrin (Homo sapiens).

With `CC(C)(C)OC(=O)Nc1ccc(-c2cc(C(=O)NCCCCCCC(=O)NO)no2)cc1`, the ΔTm is -3.33 °C in test [1] and 0 °C at Peregrin (Homo sapiens).
